Where two headings read alike, the source gives them in different places.

In one data set the target is T1, human GLP-1 (Homo sapiens, UniProt P43220).
T1 construct: expressed in transfected cells
Kind of data set: h-GLP-1 activity assay (Cisbio cAMP Gs dynamic kit, HTRF). In kind it is cell-based. The following applies: HEK293 cells with stable expression of human GLP-1, relative EC50, 10 nM human GLP-1 = 100% response. Here is the method: Human GLP-1 agonizing activity was detected in HEK293 cells with stable expression of human GLP-1 by Cisbio cAMP Gs dynamic kit (Catalog #62AM4PEC) according to manufacturer's protocol. Briefly, cells were collected and resuspended in assay buffer containing 0.1% BSA and 0.5 mM of IBMX at concentration to 2.5×10^5 cells/mL. Two μL 5× compound solution and 8 μL cell suspension were added to each well of low-volume 384 white assay plate. After 30 min incubation at 37° C., 5 μL cAMP-d2 working solution and 5 μL anti-cAMP antibody-cryptate were added to each well, and incubate at room temperature for 1 hr. Series dilution of cAMP was used as standard. Human GLP-1 (7-37) was used as positive control and 10 nM human GLP-1 was set as 100% response. HTRF signals were read at 665 and 615 nm with EnVision plate reader and calculated cAMP concentration by intrapolation to the standard curve. The EC50 value of the tested compounds was calculated by fitting the dose response curve using a 4-parameter non-linear regression routine and relative EC50 was presented in Table S.

The nature of data set [1]: Pharmacokinetics in fasted SD rats (PO and IV). In kind it is in vivo. The following applies: rat, plasma; for clearance: read-out: IV parameters CL; for bioavailability: read-out: PO parameters F (%). The protocol:
Compounds of the present application were formulated in 0.50% MC, and administered via oral gavage (PO) at the dosages of 5 or 10 mg per kilogram body weight, or formulated in 5% DMSO:15% Solutol 80% (SBECD), and administered via intravenous injection (IV) at the dosages of 1 mg per kilogram body weight, in fasted SD rats. Plasma samples were collected at 0.25, 0.5, 1, 2, 4, 6, 8, and 24 hours post dosing (PO); and were collected at 0.083, 0.25, 0.5, 1, 2, 4, 6, 8, and 24 hours post dosing (IV). Compound concentration was determined by LC-MS and pharmacokinetics parameters were calculated by WinNonlin 8.2 using Non-Compartmental Analysis model.

A short description of data set [2]: Liver microsome stability, human. In kind it is in vitro ADME. The following applies: human liver microsomes, NADPH, 37° C. Here is the method: (§1) Compounds of the present application was incubated with human or rat liver microsomes in the presence of NADPH at 37° C. The concentration of compound at pre-incubation and after 30 min incubation was quantified by LC-MS. The percentage of remaining compound was then calculated and indicative of microsome stability of each compound.
On the technique in general: Liver microsomes are a subcellular fraction often used to study metabolism.

A short description of data set [3]: Liver microsome stability, rat. It counts as in vitro ADME. The following applies: rat liver microsomes, NADPH, 37° C. Here is the method: as §1
Where [4] appears, read: IV 1 mg/kg, read-out: IV parameters AUC0-inf.
[5] abbreviates: PO 5 mg/kg, 0.50% MC, read-out: PO parameters AUC0-inf.

T1 sequence (P43220 24-463): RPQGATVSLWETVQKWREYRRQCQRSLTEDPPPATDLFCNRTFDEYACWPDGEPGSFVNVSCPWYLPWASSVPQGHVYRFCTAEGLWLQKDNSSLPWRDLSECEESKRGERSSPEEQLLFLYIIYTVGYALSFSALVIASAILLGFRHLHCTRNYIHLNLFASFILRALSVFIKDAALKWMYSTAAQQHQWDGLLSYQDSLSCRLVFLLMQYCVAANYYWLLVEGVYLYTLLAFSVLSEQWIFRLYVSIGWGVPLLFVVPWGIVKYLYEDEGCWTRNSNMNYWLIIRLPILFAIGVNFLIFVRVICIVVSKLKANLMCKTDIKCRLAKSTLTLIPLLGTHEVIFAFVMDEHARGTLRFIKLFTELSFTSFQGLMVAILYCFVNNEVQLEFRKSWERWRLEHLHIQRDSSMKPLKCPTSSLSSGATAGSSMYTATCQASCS

Turning to `C[C@@]1(c2ccc(Cl)cc2F)Oc2cccc(C3=CC[C@@H](Cc4nc5ccc(C(=O)O)cc5n4C[C@@H]4CCO4)OC3)c2O1` (single isomer, unassigned) [Compound 100], at human GLP-1, the EC50 (commonly the concentration at which the effect is half-maximal) was less than 20 nM. In addition, the results for the AUC(0-inf) in data set [1] (setting [4]) and in data set [1] (setting [5]) were 1760 ng·h/mL and 3190 ng·h/mL, respectively. In data set [1] (IV 1 mg/kg), the clearance stood at 9.7 mL/min/kg. The bioavailability in data set [1] (PO 5 mg/kg) came out at 36.3%. Further, the “Human (% remaining @ 30 min)” value in data set [2] is reported as more than 75%. Besides, in data set [3], the “Rat (% remaining @ 30 min)” value is given as more than 75%.

At human GLP-1, `C[C@]1(c2ccc(Cl)cn2)Oc2cccc(C3=CC[C@H](Cc4nc5c(F)cc(C(=O)O)cc5n4C[C@@H]4CCO4)OC3)c2O1` (single isomer, unassigned) [Compound 118] gave an EC50 of less than 20 nM. Further, the “Human (% remaining @ 30 min)” value in data set [2] is listed as more than 75%. For the same compound, in data set [3], the “Rat (% remaining @ 30 min)” value is recorded as more than 75%.

`O=C(O)c1ccc2nc(C[C@H]3CC[C@H](c4cccc(OCc5ccc(Cl)cc5F)n4)CO3)n(Cc3cncs3)c2c1` (single isomer, unassigned) [Compound 28] displayed an EC50 at human GLP-1 of less than 20 nM. For the same compound, the AUC(0-inf) in data set [1] (setting [4]) was found to be 588 ng·h/mL; in data set [1] (setting [5]), 526 ng·h/mL. Further, in data set [1] (IV 1 mg/kg), the clearance was determined as 28.8 mL/min/kg. In data set [1] (PO 5 mg/kg), the bioavailability is 21.7%.

At human GLP-1, `C[C@]1(c2ccc(Cl)cc2F)Oc2cccc(C3=CC[C@@H](Cc4nc5c(F)cc(C(=O)O)cc5n4C[C@@H]4CCO4)OC3)c2O1` (single isomer, unassigned) [Compound 110] showed an EC50 of less than 20 nM. Besides, the “Human (% remaining @ 30 min)” value in data set [2] is more than 75%. For the same compound, in data set [3], the “Rat (% remaining @ 30 min)” value was more than 75%.

At human GLP-1, `C[C@@]1(c2ccc(Cl)cn2)Oc2cccc(C3=CC[C@H](Cc4nc5ccc(C(=O)O)cc5n4C[C@@H]4CCO4)OC3)c2O1` (single isomer, unassigned) [Compound 78] displayed an EC50 of less than 20 nM. The “Human (% remaining @ 30 min)” value in data set [2] was more than 75%. For the same compound, the “Rat (% remaining @ 30 min)” value in data set [3] is recorded as more than 75%.

Regarding `C[C@]1(c2ccc(Cl)cc2F)Oc2cccc(-c3ccc(Cc4nc5ccc(C(=O)O)cc5n4C[C@@H]4CCO4)cc3)c2O1` (single isomer, unassigned) [Compound 19], the EC50 at human GLP-1 was less than 20 nM. For the same compound, the AUC(0-inf) was determined as 3380 ng·h/mL in data set [1] (setting [4]) and 4410 ng·h/mL in data set [1] (setting [5]). Further, the clearance in data set [1] (IV 1 mg/kg) is 5.5 mL/min/kg. The bioavailability in data set [1] (PO 5 mg/kg) came to 26.1%.

With `C[C@]1(c2ccc(Cl)cc2F)Oc2cccc(C3=CC[C@@H](Cc4nc5ccc(C(=O)O)nc5n4C[C@@H]4CCO4)OC3)c2O1` (single isomer, unassigned) [Compound 108], at human GLP-1, the EC50 was less than 20 nM. In addition, the “Human (% remaining @ 30 min)” value in data set [2] is more than 75%. For the same compound, the “Rat (% remaining @ 30 min)” value in data set [3] was more than 75%.

With `CC1(c2ccc(Cl)cc2F)Oc2cccc(-c3ncc(Cc4nc5ccc(C(=O)O)cc5n4C[C@@H]4CCO4)cn3)c2O1` (mixture of isomers) [Compound 21, 2-((2-(2-(4-chloro-2-fluorophenyl)-2-methylbenzo[d][1,3]dioxol-4-yl)pyrimidin-5-yl)methyl)-1-(((S)-oxetan-2-yl)methyl)-1H-benzo[d]imidazole-6-carboxylic acid], the EC50 at human GLP-1 lay within 20 to 100 nM.

`N#Cc1ccc(COc2cccc(C34CCC(Cc5nc6ccc(C(=O)O)cc6n5C[C@@H]5CCO5)(CC3)OC4)n2)c(F)c1` [Compound 36, (S)-2-((4-(6-((4-cyano-2-fluorobenzyl)oxy)pyridin-2-yl)-2-oxabicyclo[2.2.2]octan-1-yl)methyl)-1-(oxetan-2-ylmethyl)-1H-benzo[d]imidazole-6-carboxylic acid] registered an EC50 at human GLP-1 of more than 100 nM.

On to `C[C@@]1(c2ccc(Cl)cn2)Oc2cccc(N3CC4C(Cc5nc6ccc(C(=O)O)cc6n5C[C@@H]5CCO5)C4C3)c2O1` (single isomer, unassigned) [Compound 73], for which the EC50 on human GLP-1 is more than 100 nM.

For the compound `CC1(c2c(F)cc(Cl)cc2F)Oc2cccc(C3=CCC(Cc4nc5ccc(C(=O)O)cc5n4C[C@@H]4CCO4)OC3)c2O1` (mixture of isomers) [Compound 109, 2-((5-(2-(4-chloro-2,6-difluorophenyl)-2-methylbenzo[d][1,3]dioxol-4-yl)-3,6-dihydro-2H-pyran-2-yl)methyl)-1-(((S)-oxetan-2-yl)methyl)-1H-benzo[d]imidazole-6-carboxylic acid], the EC50 at human GLP-1 is less than 20 nM.

`C[C@]1(c2ccc(Cl)cc2F)Oc2cccc(-c3ccc(Cc4nc5ccc(C(=O)O)cc5n4C[C@@H]4CCO4)nc3)c2O1` (single isomer, unassigned) [Compound 18] showed an EC50 on human GLP-1 of less than 20 nM.

The compound `CC1(c2ccc(Cl)cc2F)Oc2cccc(-c3ccn(Cc4nc5ccc(C(=O)O)cc5n4C[C@@H]4CCO4)c(=O)c3)c2O1` (mixture of isomers) [Compound 22, 2-((4-(2-(4-chloro-2-fluorophenyl)-2-methylbenzo[d][1,3]dioxol-4-yl)-2-oxopyridin-1(2H)-yl)methyl)-1-(((S)-oxetan-2-yl)methyl)-1H-benzo[d]imidazole-6-carboxylic acid] showed an EC50 at human GLP-1 of 20 to 100 nM.

Source of the values: patent US20220348564A1, “PHENYL-[1,3]DIOXOLO[4,5-C]PYRIDINYL-PHENYL-, PHENYL-[1,3]DIOXOLO[4,5-C]PYRIDINYL-HETEROARYL-, OR PHENYL-(1,3)DIOXO[4,5-C]PYRIDINYL-PIPERIDINYL-METHYL-OXETANYLMETHYL-1H-BENZO[D]IMIDAZOLE-CARBOXYLIC ACID DERIVATIVES AND METHODS OF USING SAME” (Eccogene (Shanghai) Co., Ltd., priority 2021, published 2022).
